Results reported in the NIST ThermoML archive (doi:10.1021/acs.jced.7b00609).
Numbers after ± are expanded uncertainties.

Test: wn = mass fraction of the nth substance listed
Conditions: 100 kPa, Liquid, Pycnometric method

mass density (283.15 K, w1 = 0.1527) [kg/m3]	mass density (293.15 K, w1 = 0.2052) [kg/m3]	mass density (303.15 K, w1 = 0.2653) [kg/m3]	mass density (283.15 K, w1 = 0.0851) [kg/m3]	mass density (293.15 K, w1 = 0.1354) [kg/m3]	mass density (303.15 K, w1 = 0.21) [kg/m3]	SMILES
1052.8 ± 14	1056.2 ± 14	1057.1 ± 14	–	–	–	CC1=CC(=O)c2ccccc2C1=O [2-methyl-1,4-naphthalenedione] + C1COCCO1
–	–	–	1052.7 ± 14	1059.7 ± 14	1061.9 ± 14	O=C1OC(=O)c2ccccc21 [isobenzofuran-1,3-dione] + C1COCCO1
